Results from ChEMBL document CHEMBL4680201, “Design, synthesis, and pharmacological evaluation of 4- or 6-phenyl-pyrimidine derivatives as novel and selective Janus kinase 3 inhibitors” (Eur J Med Chem, 2020).
The source made the active and inactive calls. The rule behind the calls is not given here.

Legend:
[1] = molecular target: TEK (Angiopoietin-1 receptor) (Homo sapiens, UniProt Q02763); assay: Inhibition of recombinant human GST-tagged TEK (817 to 1101 residues) expressed in baculovirus expression system at 100 nM using Tyr 05 as substrate incubated for 1 hr in presence of ATP by Z'-LYTE assay relative to control; conditions: probe Tyr 05
Chain of TEK (Angiopoietin-1 receptor) (Q02763 whole entry, the tested form may be a part): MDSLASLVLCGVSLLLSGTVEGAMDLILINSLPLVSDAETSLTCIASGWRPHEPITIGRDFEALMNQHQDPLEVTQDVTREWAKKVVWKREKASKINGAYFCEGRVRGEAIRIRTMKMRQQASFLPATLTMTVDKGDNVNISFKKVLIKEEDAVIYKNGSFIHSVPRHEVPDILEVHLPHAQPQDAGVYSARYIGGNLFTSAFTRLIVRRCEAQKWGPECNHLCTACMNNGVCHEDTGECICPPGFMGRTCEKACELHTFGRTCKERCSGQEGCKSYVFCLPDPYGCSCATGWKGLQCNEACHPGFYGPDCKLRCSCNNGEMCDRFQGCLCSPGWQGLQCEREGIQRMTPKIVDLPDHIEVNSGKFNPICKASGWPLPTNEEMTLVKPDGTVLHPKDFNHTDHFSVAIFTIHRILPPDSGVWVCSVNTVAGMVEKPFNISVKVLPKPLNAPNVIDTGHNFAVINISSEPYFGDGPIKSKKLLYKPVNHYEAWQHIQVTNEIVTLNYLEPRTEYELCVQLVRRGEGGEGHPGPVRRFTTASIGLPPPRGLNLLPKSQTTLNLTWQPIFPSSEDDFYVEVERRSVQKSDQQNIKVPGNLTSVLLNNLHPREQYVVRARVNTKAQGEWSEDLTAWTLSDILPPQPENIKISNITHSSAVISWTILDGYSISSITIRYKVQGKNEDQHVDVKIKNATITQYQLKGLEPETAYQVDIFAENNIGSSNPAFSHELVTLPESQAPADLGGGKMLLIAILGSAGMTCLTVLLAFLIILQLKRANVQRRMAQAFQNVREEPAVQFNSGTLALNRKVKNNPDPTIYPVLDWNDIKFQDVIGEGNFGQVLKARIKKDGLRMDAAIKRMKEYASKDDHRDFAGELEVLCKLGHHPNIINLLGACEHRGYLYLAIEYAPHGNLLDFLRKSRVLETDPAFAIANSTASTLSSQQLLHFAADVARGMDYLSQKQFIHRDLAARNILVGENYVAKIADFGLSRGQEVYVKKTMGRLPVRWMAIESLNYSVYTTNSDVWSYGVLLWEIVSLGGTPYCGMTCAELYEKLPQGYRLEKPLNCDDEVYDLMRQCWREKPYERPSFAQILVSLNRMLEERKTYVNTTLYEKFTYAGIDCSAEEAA

[2] = molecular target: T1, Tyrosine-protein kinase JAK3 (Mus musculus) (UniProt Q62137); assay: Inhibition of JAK3 in anti-CD3/-CD28 coated mouse T cells assessed as reduction in IL2-induced STAT5 phosphorylation at 10 uM preincubated for 1 hr followed by IL2 stimulation and measured after 30 mins by Western blot analysis; conditions: T cell
T1 sequence (whole entry): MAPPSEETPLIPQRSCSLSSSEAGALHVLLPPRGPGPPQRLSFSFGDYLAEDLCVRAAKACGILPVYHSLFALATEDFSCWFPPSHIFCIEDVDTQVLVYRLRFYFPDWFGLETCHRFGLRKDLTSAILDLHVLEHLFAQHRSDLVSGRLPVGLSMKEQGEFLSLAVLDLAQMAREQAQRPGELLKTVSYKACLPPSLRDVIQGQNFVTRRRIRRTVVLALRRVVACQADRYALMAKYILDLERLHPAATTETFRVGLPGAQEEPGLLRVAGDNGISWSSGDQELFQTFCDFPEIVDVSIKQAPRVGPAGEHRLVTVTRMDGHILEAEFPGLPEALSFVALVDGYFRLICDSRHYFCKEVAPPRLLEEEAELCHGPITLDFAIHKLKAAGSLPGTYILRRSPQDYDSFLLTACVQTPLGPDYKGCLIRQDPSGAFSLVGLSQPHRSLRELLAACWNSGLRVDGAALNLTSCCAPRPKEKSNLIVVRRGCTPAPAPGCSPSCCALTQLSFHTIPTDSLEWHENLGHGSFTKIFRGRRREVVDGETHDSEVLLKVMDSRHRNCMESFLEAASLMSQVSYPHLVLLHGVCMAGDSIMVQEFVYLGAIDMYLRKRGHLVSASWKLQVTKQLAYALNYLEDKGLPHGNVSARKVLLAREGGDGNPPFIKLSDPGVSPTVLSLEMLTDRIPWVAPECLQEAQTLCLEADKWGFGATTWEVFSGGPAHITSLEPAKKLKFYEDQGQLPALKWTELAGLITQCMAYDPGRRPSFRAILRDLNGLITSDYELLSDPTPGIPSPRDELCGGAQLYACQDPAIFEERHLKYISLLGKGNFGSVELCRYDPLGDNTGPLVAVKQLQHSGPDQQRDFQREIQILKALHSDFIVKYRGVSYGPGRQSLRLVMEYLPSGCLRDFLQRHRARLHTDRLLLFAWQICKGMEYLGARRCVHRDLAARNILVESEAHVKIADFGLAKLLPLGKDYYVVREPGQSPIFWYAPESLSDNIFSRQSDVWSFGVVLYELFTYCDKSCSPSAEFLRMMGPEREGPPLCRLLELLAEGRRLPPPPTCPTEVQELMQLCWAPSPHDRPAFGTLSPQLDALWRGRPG

[3] = AUC (0 to infinity) in ICR mouse at 10 mg/kg, iv administered as single dose by LC-MS/MS analysis; format: ADME, organism-based; parameters: route intravenous, time infinity, dose 10 mg/kg; conditions: in vivo
[4] = molecular target: RET (Proto-oncogene tyrosine-protein kinase receptor Ret) (Homo sapiens, UniProt P07949); assay: Inhibition of recombinant human GST-tagged RET (658 to 1114 residues) expressed in baculovirus expression system at 100 nM using Tyr 02 as substrate incubated for 1 hr in presence of ATP by Z'-LYTE assay relative to control; conditions: probe Tyr 02
Chain of RET (Proto-oncogene tyrosine-protein kinase receptor Ret) (P07949 whole entry, the tested form may be a part): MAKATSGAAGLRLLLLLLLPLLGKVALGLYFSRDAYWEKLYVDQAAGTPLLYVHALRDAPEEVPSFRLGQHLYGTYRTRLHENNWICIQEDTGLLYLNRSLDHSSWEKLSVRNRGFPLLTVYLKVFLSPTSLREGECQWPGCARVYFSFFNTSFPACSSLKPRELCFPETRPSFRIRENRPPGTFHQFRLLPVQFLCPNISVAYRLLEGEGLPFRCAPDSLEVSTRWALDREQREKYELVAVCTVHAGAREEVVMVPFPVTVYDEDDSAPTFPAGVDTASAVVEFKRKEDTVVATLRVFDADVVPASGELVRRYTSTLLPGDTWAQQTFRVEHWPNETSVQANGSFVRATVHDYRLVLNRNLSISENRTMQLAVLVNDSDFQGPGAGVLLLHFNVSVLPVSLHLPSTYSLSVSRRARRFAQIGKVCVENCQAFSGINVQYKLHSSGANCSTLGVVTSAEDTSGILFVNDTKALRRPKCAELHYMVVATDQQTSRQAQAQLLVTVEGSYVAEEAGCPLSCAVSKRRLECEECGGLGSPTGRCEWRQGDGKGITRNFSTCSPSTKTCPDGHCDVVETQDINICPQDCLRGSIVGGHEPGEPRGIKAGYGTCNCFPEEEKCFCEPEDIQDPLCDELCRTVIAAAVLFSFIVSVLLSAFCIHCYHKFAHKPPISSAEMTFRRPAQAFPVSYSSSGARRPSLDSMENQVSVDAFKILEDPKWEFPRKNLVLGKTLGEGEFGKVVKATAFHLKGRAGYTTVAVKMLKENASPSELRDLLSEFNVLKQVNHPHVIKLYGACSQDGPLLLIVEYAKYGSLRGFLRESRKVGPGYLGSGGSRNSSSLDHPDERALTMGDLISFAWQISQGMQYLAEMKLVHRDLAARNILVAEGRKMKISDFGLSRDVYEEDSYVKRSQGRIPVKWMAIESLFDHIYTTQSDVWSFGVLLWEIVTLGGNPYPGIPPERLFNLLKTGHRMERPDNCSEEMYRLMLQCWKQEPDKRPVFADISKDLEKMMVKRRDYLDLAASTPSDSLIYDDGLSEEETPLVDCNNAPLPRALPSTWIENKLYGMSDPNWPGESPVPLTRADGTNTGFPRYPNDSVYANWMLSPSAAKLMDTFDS

[5] = molecular target: T2, Tyrosine-protein kinase JAK3 (Homo sapiens) (UniProt P52333)
T2 sequence (whole entry): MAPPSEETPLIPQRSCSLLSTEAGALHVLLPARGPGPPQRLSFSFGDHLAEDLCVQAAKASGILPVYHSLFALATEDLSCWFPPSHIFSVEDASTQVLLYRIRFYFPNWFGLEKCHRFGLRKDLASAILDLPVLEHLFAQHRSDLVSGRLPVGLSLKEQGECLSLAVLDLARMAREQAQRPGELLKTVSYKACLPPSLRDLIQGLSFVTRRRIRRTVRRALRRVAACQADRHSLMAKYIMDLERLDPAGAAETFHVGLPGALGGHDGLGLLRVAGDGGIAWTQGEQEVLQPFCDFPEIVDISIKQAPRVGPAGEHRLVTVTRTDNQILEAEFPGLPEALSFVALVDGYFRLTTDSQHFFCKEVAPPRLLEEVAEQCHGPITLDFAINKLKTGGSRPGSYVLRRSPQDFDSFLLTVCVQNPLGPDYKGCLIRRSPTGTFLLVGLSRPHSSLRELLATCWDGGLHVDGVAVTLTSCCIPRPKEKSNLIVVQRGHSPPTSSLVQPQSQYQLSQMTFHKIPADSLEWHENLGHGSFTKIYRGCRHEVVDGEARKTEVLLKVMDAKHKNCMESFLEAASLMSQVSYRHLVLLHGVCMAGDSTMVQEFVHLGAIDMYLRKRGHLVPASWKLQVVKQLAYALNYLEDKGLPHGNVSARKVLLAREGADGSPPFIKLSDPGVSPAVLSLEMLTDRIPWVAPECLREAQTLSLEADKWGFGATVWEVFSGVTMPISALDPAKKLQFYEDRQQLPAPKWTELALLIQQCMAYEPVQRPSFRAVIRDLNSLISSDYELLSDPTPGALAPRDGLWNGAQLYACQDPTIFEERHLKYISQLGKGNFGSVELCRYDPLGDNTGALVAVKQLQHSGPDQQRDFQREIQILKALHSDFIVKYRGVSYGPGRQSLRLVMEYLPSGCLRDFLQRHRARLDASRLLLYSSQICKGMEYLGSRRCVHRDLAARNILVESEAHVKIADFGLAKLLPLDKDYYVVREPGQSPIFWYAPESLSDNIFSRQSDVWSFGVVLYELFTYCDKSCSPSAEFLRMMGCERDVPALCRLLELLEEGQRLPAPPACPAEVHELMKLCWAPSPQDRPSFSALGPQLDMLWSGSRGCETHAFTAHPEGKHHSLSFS

SMILES: C=CC(=O)Nc1ccc(-c2ccnc(Nc3ccc(N4CCOCC4)cc3)n2)cc1
- inhibition at 1 h, 0.1 µM [1]: 29.5%
- inhibition [2]: Active
- AUC(0-inf) [3]: 1270 ng·h/mL
- inhibition at 1 h, 0.1 µM [4]: 2.9%
- TDI [5]: Active
